Test results taken from US20120252721A1 (priority 2011, published 2012).

What was measured:
in vitro = type: cell-based; details: human; GS4.1 cells, cellular viability
Description: For cytotoxicity evaluation, GS4.1 cells were treated with compounds as described above and cellular viability was monitored using the Cell Titer 96 AQeous One Solution Cell Proliferation Assay (Promega). CC50 values were determined from the % cytotoxicity versus concentration data with Tecan Magellan software as described above.

H1a-luc or Zluc cells = test: in vitro; type: cell-based, human; details: Table 1B, cellular viability
Description: (§1) For cytotoxicity evaluation, HPC cells were treated with compounds as described above in the absence of the genotype 2a virus and cellular viability was monitored using the Cell Titer 96 AQueous One Solution Cell Proliferation Assay (Promega). Plates were then read at 490 nm in a Victor^3V 1420 multilabel counter (Perkin Elmer) and CC50 concentrations were determined using Microsoft Excel and XLfit 4.1 software.
as §1, with “H1a-luc or Zluc” for “HPC”, “above” for “above in the absence of the genotype 2a virus”

[1] = tested on: HCV genotype 3a NS5A within the 1b-replicon; test: Luciferase replicon assay, NS5A-intergenotypic stable cell line genotype 3a; type: cell-based; details: Hepatitis C virus, read-out: EC50 3a
From the text: The nucleotide sequences of the NS5A region of genotype 2a (GenBank Accession # AB047639), genotype 3a (GenBank Accession #D17763), and genotype 4a (GenBank Accession# DQ418788) were synthesized by an outside vendor. The NS5A region of each of these genotypes included the first 11 amino acids of the protease recognition sequence of genotype 1b, as well as the last 10 amino acids of genotype 1b. The NS5A gene cassettes were excised with site specific restriction endonucleases and ligated into a ZS11-luciferase genotype 1b backbone (backbone contains the genotype 1b NS3 protease, NS4a, NS4b, and NS5b coding regions) with similarly cut restriction enzyme sites. Thus, the newly constructed plasmid contains a genotype 2a-, 3a- or 4a-specific NS5A gene within the 1b-replicon.
These new intergenotypic plasmids were used to establish stable cell lines. RNA was generated from the NS5A intergenotypic plasmids and used in conjunction with a lipofectin reagent to transfect a cured Huh7 cell line. Transfected cells were selected for with G418. After selection has occurred the stable cell lines were propagated, tested for luciferase activity, and RT-PCR with genotype specific primers (either 1a, 2a, 3a, or 4a). Stable cell lines containing the intergenotypic replicon were then fully sequenced and analyzed for proper expression of NS3, NS5A and NS5B proteins.
(§2) Drug titration analysis was performed using the luciferase replicon assay described herein.
(§3) The HCV luciferase replicon assay measures the ability of a test compound to inhibit HCV replication in cell culture after 3 days of treatment in a human hepatoma cell line (Huh-7) bearing an HCV replicon containing a luciferase-neomycin phosphotransferase fusion gene. The inhibition of HCV replication was measured by quantification of luciferase protein expression. Briefly, Huh-7 cells containing either the HCV genotype 1a H77 strain or genotype 1b Con1 strain subgenomic luciferase replicon (H1a-luc or Zluc, respectively) were grown in DMEM containing glucose, L-glutamine and sodium pyruvate, 10% fetal bovine serum (FBS), 100 IU/mL penicillin, 100 μg/mL streptomycin, 2 mM GlutaMAX, non-essential amino acids and 0.25 (H1a-luc) or 0.5 (Zluc) mg/mL G418. GlutaMAX was obtained from Invitrogen, Corp.; all other media reagents were obtained from Mediatech, Inc. For dose-response testing, the cells were seeded in 96-well plates at 1×10^4 (H1a-luc) or 7.5×10^3 (Zluc) cells/well in a volume of 50 μL, and incubated at 37° C./5% CO2. Three hours after plating, 50 μL of ten 5-fold serial dilutions of compound were added, and cell cultures were incubated at 37° C./5% CO2 for 72 hours. In all cases, Huh-7 cells lacking the HCV replicon served as negative control. To assess luciferase expression, the media/compound was removed from the plates and ONE-glo Luciferase assay reagent (Promega) was added to each well. The assay plates were shaken for 3 minutes at room temperature and luciferase activity for each well was measured with a 1 sec read time on the Victor^3V multilabel counter using a 700 nm cut-off filter (Perkin Elmer). EC50 values were calculated from dose response curves from the resulting best-fit equations determined by Microsoft Excel and XLfit 4.1 software.

[2] = tested on: HCV genotype 1b Con1 strain subgenomic luciferase replicon (Zluc); test: Luciferase replicon assay, genotype 1b; type: cell-based; details: Hepatitis C virus
Description: as §3

[3] = tested on: HCV genotype 1a H77 strain subgenomic luciferase replicon (H1a-luc); test: Luciferase replicon assay, genotype 1a; type: cell-based; details: Hepatitis C virus, read-out: EC50 1a
Description: as §2, §3

[4] = tested on: HCV Con1 subgenomic replicon (GS4.1 cells); test: HCV replicon assay (NS5A ELISA, 72 hrs); type: cell-based; details: Hepatitis C virus
Description: Huh-7 cells containing HCV Con1 subgenomic replicon (GS4.1 cells) were grown in Dulbecco's Modified Eagle Medium (DMEM) supplemented with 10% fetal bovine serum (FBS), 2 mM L-glutamine, 110 mg/L sodium pyruvate, 1× non-essential amino acids, 100 U/mL penicillin-streptomycin, and 0.5 mg/mL G418 (Invitrogen). For dose-response testing, the cells were seeded in 96-well plates at 7.5×10^3 cells/well in a volume of 50 μL, and incubated at 37° C./5% CO2. Three hours after plating, 50 μL often 2-fold serial dilutions of compounds (highest concentration, 75 μM) were added, and cell cultures were incubated at 37° C./5% CO2 in the presence of 0.5% DMSO. Alternatively, compounds were tested at a single concentration of 15 μM. In all cases, Huh-7 cells lacking the HCV replicon served as negative control. The cells were incubated in the presence of compounds for 72 hrs after which they were monitored for expression of the NS5A protein by enzyme-linked immunosorbent assay (ELISA). For this, the plates were then fixed for 1 min with acetone/methanol (1:1, v/v), washed twice with phosphate-buffered saline (PBS), 0.1% Tween 20, blocked for 1 hr at room temperature with TNE buffer containing 10% FBS and then incubated for 2 hr at 37° C. with the anti-NS5A mouse monoclonal antibody A-236 (ViroGen) diluted in the same buffer. After washing three times with PBS, 0.1% Tween 20, the cells were incubated 1 hr at 37° C. with anti-mouse immunoglobulin G-peroxidase conjugate in TNE, 10% FBS. After washing as described above, the reaction was developed with O-phenylenediamine (Zymed). The reaction was stopped after 30 min with 2 NH2SO4, and absorbance was read at 492 nm using Sunrise Tecan spectrophotometer. EC50 values were determined from the % inhibition versus concentration data using a sigmoidal non-linear regression analysis based on four parameters with Tecan Magellan software.

Compound: COC(=O)N[C@H](C(=O)N1CCC[C@H]1c1ncc(-c2ccc(-c3cc4sc(-c5cnc([C@@H]6CCCN6C(=O)[C@@H](NC(=O)OC)C(C)C)[nH]5)cc4s3)cc2)[nH]1)C(C)C [Compound A126, [(S)-1-((S)-2-{5-[4-(5-{2-[(S)-1-((S)-2-Methoxycarbonylamino-3-methyl-butyryl)-pyrrolidin-2-yl]-3H-imidazol-4-yl}-thieno[3,2-b]thiophen-2-yl)-phenyl]-1H-imidazol-2-yl}-pyrrolidine-1-carbonyl)-2-methyl-propyl]-carbamic acid methyl ester]
- CC50 (in vitro): > 75000 nM
- CC50 (H1a-luc or Zluc cells): > 75000 nM
- EC50 [1]: 1 to 10 nM
- EC50 [2]: < 0.1 nM
- EC50 [3]: < 0.1 nM
- EC50 [4]: < 1 nM

Compound: COC(=O)N[C@H](C(=O)N1CCC[C@H]1c1ncc(-c2ccc(-c3csc4c(-c5ccc6[nH]c([C@@H]7CCCN7C(=O)[C@@H](NC(=O)OC)C(C)C)nc6c5)csc34)cc2)[nH]1)C(C)C [Compound A171, [(S)-1-((S)-2-{4-[4-(6-{2-[(S)-1-((S)-2-methoxycarbonylamino-3-methyl-butyryl)-pyrrolidin-2-yl]-3H-benzoimidazol-5-yl}-thieno[3,2-b]thiophen-3-yl)-phenyl]-1H-imidazol-2-yl}-pyrrolidine-1-carbonyl)-2-methyl-propyl]-carbamic acid methyl ester]
- CC50 (H1a-luc or Zluc cells): > 75000 nM
- EC50 [1]: 1 to 10 nM
- EC50 [2]: < 0.1 nM
- EC50 [3]: < 0.1 nM

Compound: COC(=O)N[C@H](C(=O)N1CCCC1c1ncc(-c2cc3sc(-c4ccc(-c5cnc([C@@H]6CCCN6C(=O)[C@H](NC(=O)OC)c6ccccc6)[nH]5)cc4)cc3s2)[nH]1)C(C)C (stereo partly drawn) [Compound A217]
- CC50 (H1a-luc or Zluc cells): > 75000 nM
- EC50 [2]: < 0.1 nM
- EC50 [3]: < 0.1 nM

Compound: COC(=O)N[C@H](C(=O)N1CCC[C@H]1c1nc2ccc(-c3cc4sc(-c5ccc(-c6c[nH]c([C@@H]7CCCN7C(=O)[C@H](NC(=O)OC)c7ccccc7)n6)cc5)cc4s3)cc2[nH]1)C(C)C [Compound A215, [(S)-1-((S)-2-{6-[5-(4-{(S)-2-[1-((R)-2-methoxycarbonylamino-2-phenyl-acetyl)-pyrrolidin-2-yl]-1H-imidazol-4-yl}-phenyl)-thieno[3,2-b]thiophen-2-yl)-1H-benzoimidazol-2-yl}-pyrrolidine-1-carbonyl)-2-methyl-propyl]-carbamic acid methyl ester]
- CC50 (H1a-luc or Zluc cells): > 75000 nM
- EC50 [2]: < 0.1 nM
- EC50 [3]: < 0.1 nM

Compound: COC(=O)N[C@H](C(=O)N1CCCC1c1ncc(-c2ccc(-n3ccc4c(-c5cnc(C6CCCN6C(=O)[C@@H](NC(=O)OC)C(C)C)[nH]5)csc43)c(Cl)c2)[nH]1)C(C)C (stereo partly drawn) [Compound A213]
- EC50 [2]: < 0.1 nM
- EC50 [3]: 0.1 to 1 nM

Compound: COC(=O)N[C@H](C(=O)N1CCCC1c1nc(-c2cc3sc(-c4ccc(-c5cnc([C@@H]6CCCN6C(=O)[C@@H](c6ccccc6)N6CCCCC6)[nH]5)cc4)cc3o2)c[nH]1)C(C)C (stereo partly drawn) [Compound A212]
- CC50 (H1a-luc or Zluc cells): 10000 to 75000 nM
- EC50 [2]: < 0.1 nM
- EC50 [3]: < 0.1 nM

Compound: COC(=O)N[C@H](C(=O)N1CCC[C@H]1c1ncc(-c2ccc(-c3csc4c(-c5cnc([C@@H]6CCCN6C(=O)[C@H](NC(=O)OC)c6ccccc6)[nH]5)csc34)cc2)[nH]1)C(C)C [Compound A200, [(S)-1-((S)-2-{4-[4-(6-{2-[(S)-1-((R)-2-methoxycarbonylamino-2-phenyl-acetyl)-pyrrolidin-2-yl]-3H-imidazol-4-yl}-thieno[3,2-b]thiophen-3-yl)-phenyl]-1H-imidazol-2-yl}-pyrrolidine-1-carbonyl)-2-methyl-propyl]-carbamic acid methyl ester]
- CC50 (H1a-luc or Zluc cells): > 75000 nM
- EC50 [2]: < 0.1 nM
- EC50 [3]: 0.1 to 1 nM
